Assay results taken from US20050148656A1, “Carboxylic derivates” (priority 2003, published 2005).

Columns and labels:
human PPARα = molecular target: T1, human PPARα (Homo sapiens, UniProt Q07869); test: Luciferase reporter assay in transiently transfected cells, PPARα activation; format: cell-based; details: 50% of maximal activation obtained by reference compound (ETYA); about 24 hours exposure
T1 construct: expressed in transfected cells
T1 sequence (Q07869 1-468): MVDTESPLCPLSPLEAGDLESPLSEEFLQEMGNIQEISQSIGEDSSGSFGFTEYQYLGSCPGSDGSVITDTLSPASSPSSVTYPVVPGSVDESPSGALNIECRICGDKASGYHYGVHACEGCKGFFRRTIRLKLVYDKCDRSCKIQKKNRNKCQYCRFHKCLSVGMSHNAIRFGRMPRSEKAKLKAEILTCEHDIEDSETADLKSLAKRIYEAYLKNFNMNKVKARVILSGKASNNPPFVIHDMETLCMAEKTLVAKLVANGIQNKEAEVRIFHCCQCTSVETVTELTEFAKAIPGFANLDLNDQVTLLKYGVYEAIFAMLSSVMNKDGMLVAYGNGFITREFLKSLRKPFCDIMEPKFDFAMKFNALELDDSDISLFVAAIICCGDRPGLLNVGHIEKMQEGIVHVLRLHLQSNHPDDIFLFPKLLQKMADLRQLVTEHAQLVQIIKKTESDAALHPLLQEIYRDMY
Experimental: (§1) The compounds of the invention were tested in the assays described in WO 03/051821.
(§2) Stock solutions of compounds in DMSO were diluted in appropriate concentration ranges in master plates. From master plates, compounds were diluted in culture media to obtain test compound solutions for final doses.
(§3) After adjustment of the amount of cell medium to 75 μl in each well, 50 μl test compound solution was added. Transiently transfected cells were exposed to compounds for about 24 hours before the luciferase detection assay was performed. For luciferase assays, 100 μl of assay reagent was added manually to each well and plates were left for approximately 20 minutes in order to allow lysis of the cells. After lysis, luciferase activity was measured in a 1420 Multiwell counter, Victor, from Wallach.
(§4) The TZD pioglitazone was used as reference substance for activation of both human and murine PPARγ. 5,8,11,14-Eicosatetrayonic acid (ETYA) was used as reference substance for human PPARα.
(§5) For calculation of EC50 values, a concentration-effect curve was established. Values used were derived from the average of two or three independent measurements (after subtraction of the background average value) and were expressed as the percentage of the maximal activation obtained by the reference compound. Values were plotted against the logarithm of the test compound concentration. EC50 values were estimated by linear […] between the data points and calculating the concentration required to achieve 50% of the maximal activation obtained by the reference compound.

PPARγ = test: Luciferase reporter assay in transiently transfected cells, PPARγ activation; format: cell-based, human and murine
Experimental: as §1, §2, §3, §4, §5

With `CCO[C@@H](Cc1ccc(OCC(=O)N(Cc2ccc(Cl)cc2)Cc2ccc(C(C)(C)C)cc2)cc1)C(=O)O` [Example 13, (2S)-3-(4-{2-[(4-tert-Butylbenzyl)(4-chlorobenzyl)amino]-2-oxoethoxy}phenyl)-2-ethoxypropanoic acid] as the molecule, how does the EC50 (human PPARα) read?
The EC50 was 8 nM.

What about the “ratio EC50 (PPARγ):EC50 (PPARα)” value (PPARγ) of the same molecule?
Its value is greater than 400.

Which EC50 (human PPARα) does the source give for `CCO[C@@H](Cc1ccc(OCC(=O)N(Cc2ccc(Cl)cc2)Cc2ccc(Cl)cc2)cc1)C(=O)O` [Example 12, (2S)-3-(4-{2-[bis(4-Chlorobenzyl)amino]-2-oxoethoxy}phenyl)-2-ethoxypropanoic acid] here?
The EC50 was 3 nM.

And the “ratio EC50 (PPARγ):EC50 (PPARα)” value (PPARγ)?
The value was greater than 1000.

For `CCO[C@@H](Cc1ccc(OCC(=O)N(Cc2ccc(C(F)(F)F)cc2)Cc2ccc(C(F)(F)F)cc2)cc1)C(=O)O` [Example 15, (2S)-3-[4-(2-{bis[4-(Trifluoromethyl)benzyl]amino}-2-oxoethoxy)phenyl]-2-ethoxypropanoic acid], which EC50 (human PPARα) is on record?
The EC50 was 3 nM.

And the “ratio EC50 (PPARγ):EC50 (PPARα)” value (PPARγ)?
Its value is greater than 900.
